From patent US10308881B2, “Process to produce oil with low polyaromatic hydrocarbon content” (PT PERTAMINA (PERSERO), priority 2010, dated 2019)

Test system: Salmonella typhimurium TA 1535
Experiment: Mutagenicity test (AMES Test, OECD Guidelines for Testing of Chemicals No. 471)
Assay type: cell-based
Conditions: without dilution
From the text: One of the important consideration published in the European Commission 2005/69/EC (European legislation) confirmed the restriction that the level of 8 Grimmers PAHs especially Benzo(a)pyrene (BaP) with amount exceeding the allowed limit will be considered as carcinogenic, mutagenic and toxic, and thereby will be prohibited to produce and distribute within the European legislation area. The presence of PAHs can be detected qualitatively and quantitatively using Benzo(a)Pyrene (BaP) as marker. Commonly known method to measure carcinogenic and mutagenic compound is ASTM E 1687-98 method (Ames test method for determining carcinogenic potential of Virgin Base Oils in Metalworking Fluids) and also Ames test based on OECD Guidelines for Testing of Chemicals No 471(1997). In the present invention method of AMES test using Salmonella typhimurium TA 1535 as microbes that is very sensitive to mutagenic compounds.
The mutagenity test was conducted using AMES Test based on OECD Guidelines for Testing of Chemicals No. 471 (1997). In this test Salmonella typhimurium TA 1535 was used as microbe material which was very sensitive to mutagenic compound. The number of colony which grew was an indicator of mutagenic activity of the PAH compound in the DAE Feed, TDAE-1 and TDAE-2, respectively. […]

**Q.** Which “Average Number of Colony Koloni” value (With S-9 Mix) does the source give for `C[S+](C)[O-]` [DMSO, dimethylsulfoxide] here?
**A.** 377

**Q.** What about the “Average Number of Colony Koloni” value (Without S-9 Mix) of the same compound?
**A.** 314
